Measurements taken from PMC11249626, “Fluorophore-Labeled Pyrrolones Targeting the Intracellular Allosteric Binding Site of the Chemokine Receptor CCR1” (ACS Pharmacology & Translational Science, 2024).
Like-named read-outs stand apart in the source and are kept apart here.

Target: T1, CCR2 (Homo sapiens, UniProt P41597)
T1 construct: host or cells: HEK293T, transient
T1 sequence (P41597 1-360 isoform P41597-2): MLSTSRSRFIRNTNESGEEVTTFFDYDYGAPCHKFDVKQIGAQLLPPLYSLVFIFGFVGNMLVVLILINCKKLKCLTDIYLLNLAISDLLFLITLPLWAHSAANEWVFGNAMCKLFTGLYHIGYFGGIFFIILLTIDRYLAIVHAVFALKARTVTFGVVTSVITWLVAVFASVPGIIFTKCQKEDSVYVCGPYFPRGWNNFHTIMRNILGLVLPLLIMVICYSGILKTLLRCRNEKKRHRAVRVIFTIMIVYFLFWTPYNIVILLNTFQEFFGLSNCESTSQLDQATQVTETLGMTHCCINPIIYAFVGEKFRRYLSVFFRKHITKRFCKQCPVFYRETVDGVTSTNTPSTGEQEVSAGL
Test: NanoBRET competition binding assay for CCR2 based on 7, as previously reported
Details: for inhibition at 20 µM: compound at 20 μM
From the text: With 6 (Figure 1), a first lead structure for intracellular CCR1 inhibition that features an approximately 20-fold CCR1 over CCR2 selectivity was previously discovered by Ortiz Zacarías et al.([33]) In order to discover new chemotypes for selective CCR1 over CCR2 inhibition, we aimed to apply our novel NanoBRET competition binding assay for CCR1 in combination with our recently published CCR2 competition binding assay based on 7.[47] In our first attempt, we screened a small in-house library enriched with intracellular GPCR ligands and structural analogues thereof. […] Additionally, we tested 23 for binding to the IABS of CCR9 and CXCR2 using our recently reported NanoBRET-based assay platform (Figure 6C).[44],[45] In the course of these studies, we detected no binding of 23 to CCR9 and CXCR2 up to a concentration of 20 μM. Since cell lineage-dependent effects have been observed for CCR1 antagonists,[59] we studied the CCR1 over CCR2 selectivity of 23 by using a previously reported radioligand binding assay with membrane preparations from osteosarcoma (U2OS) cells stably expressing human CCR1 or CCR2.[33] […] In agreement with these previous reports,[33] we observed a reduction in CCR1 over CCR2 selectivity when moving from membrane-based binding assays to cell-based functional assays. […] To investigate a potential signaling bias of 23, we tested the compound by means of a NanoBiT miniGi recruitment assay.[60] […] Thus, this indicated no strong signaling bias of 23 (Figures S9E and S10C). To elucidate the SAR of this new scaffold for selective CCR1 over CCR2 inhibition, we synthesized several analogues of 23 (24–40) and tested them by means of our NanoBRET competition binding assays (Schemes S2 and S3, Table 1, Figures 6F and S11). First, we aimed to examine the impact of the stereochemistry of 23 on CCR1 affinity. As for the structurally related pyrrolone 4, large differences in CCR2 affinity between the eutomer 4-[R] and the distomer 4-[S] were described.[61] […] Furthermore, we identified the 4-hydroxyphenethyl group at position 1 of the pyrrolone scaffold as highly important for CCR1 affinity and selectivity. Its presence seems to block CCR2 binding, also when combined with the structural features of the high-affinity CCR2 ligand 5, as exemplified by 24. Especially the 4-hydroxy group at this moiety is essential for CCR1 binding (see 25 and 26). […] In position 5 of the pyrrolone, several aromatic and aliphatic substituents were tolerated (see 31–35).

Compound | inhibition at 20 µM (read-out: % inh. of tracer binding, CCR2) | inhibition at 20 µM (read-out: CCR2 inhibition class (n.i.)) | Ki (NanoBRET competition, tracer 7)
O=C(C1=C(O)C(=O)N(CCc2ccc(O)cc2)C1c1ccc(F)cc1)c1ccccc1 (racemic) [compound 23] | -3% | < 10% | –
CC(=O)C1=C(O)C(=O)N(c2ccc(Br)cc2F)C1C1CCCCC1 (stereo not drawn) [compound 5, reference compound] | – | – | 17.9 nM
